Measurements published in patent US20230285372A1, “Pharmaceutical use of (E)-3-arylheterocyclylprop-2-enoic acid derivatives” (MEDCURIUS INC., priority 2020, published 2023).
Structures can show the parent of a compound that is named as a salt. Where two headings read alike, the source gives them in different places.

Legend:
HT-22 cells = assay: Protective effect on HT-22 cell damage caused by L-glutamate monosodium salt; assay type: cell-based, mouse; settings: 15 mM L-glutamate; for viability at 0.078 µM / viability at 0.156 µM / viability at 0.625 µM / viability at 1.25 µM / viability at 5 µM / viability at 10 µM / viability at 2.5 µM / viability at 0.313 µM: Mus musculus, 24 hours; for protection of HT22 cells against L-glutamate monosodium salt damage, in words: comparison with positive control drug DMF
Experimental: (§1) Well-proliferated HT-22 cells, derived from mouse hippocampal neuronal cells in logarithmic growth phase, were selected, and they were counted after being subjected to trypsin digestion and dispersion. The cell density was adjusted with DMEM/F12 medium (containing 10% FBS and 1% double antibody). The cells were then inoculated in a 96-well plate at a density of 2,000 cells per well, and cultured in a cell incubator at 37° C. in atmosphere containing 5% CO2 for 24 hours. For the control group and the L-glutamate monosodium salt group (model group), serum-free DMEM/F12 medium was added, and the other wells were added with tested compounds of different concentrations; except that the serum-free DMEM/F12 medium was added to the control group. L-glutamate monosodium salt solution at the final concentration of 15 mM was added to the remaining wells. After 24 hours, the cell viability was detected with a luminescent cell viability assay kit.
as §1, with “group,” for “group.”
as §1, with “2.000” for “2,000”, “group,” for “group.”

SH-SY5Y cells = assay: Protective effect on SH-SY5Y cell damage caused by oxygen-glucose deprivation/reperfusion; assay type: cell-based; settings: OGD 4 hours then 24 hours, CCK-8, model 56.83
Experimental: SH-SY5Y cells in logarithmic growth phase were selected, the culture medium was discarded, the cells were digested with 0.25% Trypsin containing EDTA, and cell suspension was made. Cell density was adjusted to 30,000/ml with DMEM/F12 medium (containing 10% FBS and 1% double antibody) and it was inoculated to 96-well plate, 100 μL/well, the number of cells per well was 3,000, and the cells were cultured in a cell incubator at 37° C. in an atmosphere containing 5% CO2 for 24 hours. After 24 hours, the cells were washed twice with the Earle's solution. For the control group, 100 μL oxygenated Earle's solution was added in each well, and for the remaining groups, 100 μL oxygen-free Earle's solution after nitrogen bubbling was added, and the oxygen content in an anoxic chamber was kept below 0.5%, and models were made in the cell incubator for 4 hours. […] After 24 hours, CCK-8 cell viability test kit was used to detect the cell viability.

[1] = HT-22, 24 h, Table 1, Conc 0.078 μm, L-Glu alone 27.73 (I-5 32.92), read-out: cell viability
[2] = HT-22, 24 h, Table 1, Conc 0.156 μm, L-Glu alone 27.73 (I-5 32.92), read-out: cell viability
[3] = HT-22, 24 h, Table 1, Conc 0.625 μm, L-Glu alone 27.73 (I-5 32.92), read-out: cell viability
[4] = HT-22, 24 h, Table 1, Conc 1.25 μm, L-Glu alone 27.73 (I-5 32.92), read-out: cell viability
[5] = HT-22, 24 h, Table 1, Conc 5 μm, L-Glu alone 27.73 (I-5 32.92), read-out: cell viability
[6] = HT-22, 24 h, Table 1, Conc 10 μm, L-Glu alone 27.73 (I-5 32.92), read-out: cell viability
[7] = HT-22, 24 h, Table 1, Conc 2.5 μm, L-Glu alone 27.73 (I-5 32.92), read-out: cell viability
[8] = HT-22, 24 h, Table 1, Conc 0.313 μm, L-Glu alone 27.73 (I-5 32.92), read-out: cell viability
[9] = HT-22, Table 2, Conc 2.5 μM, L-Glu alone 27.83, read-out: Visibility %
[10] = HT-22, Table 2, Conc 10 μM, L-Glu alone 27.83, read-out: Visibility %
[11] = HT-22, Table 2, Conc 0.078 μM, L-Glu alone 27.83, read-out: Visibility %
[12] = HT-22, Table 2, Conc 0.625 μM, L-Glu alone 27.83, read-out: Visibility %
[13] = HT-22, Table 2, Conc 0.156 μM, L-Glu alone 27.83, read-out: Visibility %
[14] = HT-22, Table 2, Conc 5 μM, L-Glu alone 27.83, read-out: Visibility %
[15] = HT-22, Table 2, Conc 0.313 μM, L-Glu alone 27.83, read-out: Visibility %
[16] = HT-22, Table 2, Conc 1.25 μM, L-Glu alone 27.83, read-out: Visibility %

SMILES	viability at 0.078 µM (HT-22 cells; [1]) [%]	viability at 0.156 µM (HT-22 cells; [2]) [%]	viability at 0.625 µM (HT-22 cells; [3]) [%]	viability at 1.25 µM (HT-22 cells; [4]) [%]	viability at 5 µM (HT-22 cells; [5]) [%]	viability at 10 µM (HT-22 cells; [6]) [%]	viability at 2.5 µM (HT-22 cells; [7]) [%]	other results
COC(=O)/C=C/c1ccccn1 [Compound I-1]	38.7	45.7	47.9	43.5	38.4	33.4	–	–
COC(=O)/C=C/c1cccnc1 [Compound I-3]	46.8	50.6	46.8	45.2	37.3	31.2	47.5	–
COC(=O)/C=C/c1ccncc1 [Compound I-4]	45.1	44.1	42.3	41.3	40.2	37.6	40.5	viability at 0.313 µM (HT-22 cells; [8]): 42.7%
N#C/C=C/c1cccnc1 [Compound I-6]	40.1	43.3	–	40.9	40.1	42.6	43	viability at 0.313 µM (HT-22 cells; [8]): 42.9%
N#C/C=C/c1ccncc1 [Compound I-7]	48.8	48	40.6	55.5	32.2	–	–	viability at 0.313 µM (HT-22 cells; [8]): 42.8%
CON(C)C(=O)/C=C/c1ccccn1 [Compound I-8]	–	77.8	71.1	54.6	50.9	53	54.8	protection of HT22 cells against L-glutamate monosodium salt damage, in words (HT-22 cells): better effects than the positive control drug DMF; viability at 0.313 µM (HT-22 cells; [8]): 70.6%
CON(C)C(=O)/C=C/c1cccnc1 [Compound I-9]	35.5	35.8	45.8	41.6	43.4	40.1	40.1	viability at 0.313 µM (HT-22 cells; [8]): 40.8%
CON(C)C(=O)/C=C/c1ccncc1 [Compound I-10]	44.7	43	43.3	41.9	43.4	37.5	47.8	viability at 0.313 µM (HT-22 cells; [8]): 43.7%
CN(C)C(=O)/C=C/c1ccccn1 [Compound I-11]	42.4	42.2	44.2	43.6	35.4	40.3	46.5	viability at 0.313 µM (HT-22 cells; [8]): 46.1%
CN(C)C(=O)/C=C/c1cccnc1 [Compound I-12]	48.9	–	49.5	45.6	39.3	44.3	44.2	viability at 0.313 µM (HT-22 cells; [8]): 50.8%
CN(C)C(=O)/C=C/c1ccncc1 [Compound I-13]	52.4	58.8	64.9	61.6	51.5	51.6	59.7	protection of HT22 cells against L-glutamate monosodium salt damage, in words (HT-22 cells): better effects than the positive control drug DMF
COC(=O)NC(=O)/C=C/c1ccccn1 [Compound I-15]	–	–	–	–	–	–	–	viability at 2.5 µM (HT-22 cells; [9]): 43.1%; viability at 10 µM (HT-22 cells; [10]): 34.1%
COC(=O)NC(=O)/C=C/c1cccnc1 [Compound I-16]	–	–	–	–	–	–	–	viability at 0.078 µM (HT-22 cells; [11]): 41.3%; viability at 0.625 µM (HT-22 cells; [12]): 34.2%; viability at 2.5 µM (HT-22 cells; [9]): 40.4%
COC(=O)NC(=O)/C=C/c1ccncc1 [Compound I-17]	–	–	–	–	–	–	–	viability at 0.156 µM (HT-22 cells; [13]): 48.3%; viability at 0.625 µM (HT-22 cells; [12]): 51.2%; viability at 5 µM (HT-22 cells; [14]): 33.6%; viability at 10 µM (HT-22 cells; [10]): 31.2%
COC(=O)/C=C/c1ncccn1 [Compound I-18]	–	–	–	–	–	–	–	viability at 5 µM (HT-22 cells; [14]): 40.9%
CN(C)C(=O)/C=C/c1ncccn1 [Compound I-19]	–	–	–	–	–	–	–	viability at 0.078 µM (HT-22 cells; [11]): 47.1%; viability at 0.156 µM (HT-22 cells; [13]): 39.2%; viability at 0.313 µM (HT-22 cells; [15]): 37.5%
CN(C)C(=O)/C=C/c1ccncn1 [Compound I-20]	–	–	–	–	–	–	–	viability at 0.156 µM (HT-22 cells; [13]): 43.4%; viability at 2.5 µM (HT-22 cells; [9]): 57.1%; viability at 10 µM (HT-22 cells; [10]): 51.2%
CON(C)C(=O)/C=C/c1ccncn1 [Compound I-21]	–	–	–	–	–	–	–	viability at 2.5 µM (HT-22 cells; [9]): 60.3%; viability at 10 µM (HT-22 cells; [10]): 58.4%
COC(=O)/C=C/c1ncc[nH]1 [Compound I-22]	–	–	–	–	–	–	–	viability at 1.25 µM (HT-22 cells; [16]): 40%; viability at 2.5 µM (HT-22 cells; [9]): 42.7%
COC(=O)/C=C/c1nccn1C [Compound I-23]	–	–	–	–	–	–	–	protection of HT22 cells against L-glutamate monosodium salt damage, in words (HT-22 cells): equivalent to that of a positive control drug DMF; viability at 0.078 µM (HT-22 cells; [11]): 65.4%; viability at 0.313 µM (HT-22 cells; [15]): 38.3%; viability at 1.25 µM (HT-22 cells; [16]): 39%
CN(C)C(=O)/C=C/c1nccn1C [Compound I-24]	–	–	–	–	–	–	–	viability at 0.156 µM (HT-22 cells; [13]): 39.6%; viability at 0.313 µM (HT-22 cells; [15]): 38%; viability at 2.5 µM (HT-22 cells; [9]): 35.7%
Cc1coc(/C=C/C#N)n1 [Compound I-26]	–	–	–	–	–	–	–	protection of HT22 cells against L-glutamate monosodium salt damage, in words (HT-22 cells): perform far better than the positive control drug DMF
COC(=O)/C=C/c1ncco1 [Compound I-27]	–	–	–	–	–	–	–	protection of HT22 cells against L-glutamate monosodium salt damage, in words (HT-22 cells): perform better than the positive control drug DMF
COC(=O)/C=C/c1nc(C)cs1 [Compound I-28]	–	–	–	–	–	–	–	protection of HT22 cells against L-glutamate monosodium salt damage, in words (HT-22 cells): perform far better than the positive control drug DMF
Cc1csc(/C=C/C#N)n1 [Compound I-30]	–	–	–	–	–	–	–	protection of HT22 cells against L-glutamate monosodium salt damage, in words (HT-22 cells): perform better than the positive control drug DMF
CC1=NN(c2ccccc2)C(=O)C1 [Edaravone, reference compound]	–	–	–	–	–	–	–	Visibility % (SH-SY5Y cells; Conc 0.078 μM): 59.41%; Visibility % (SH-SY5Y cells; Conc 0.156 μM): 62.42%; Visibility % (SH-SY5Y cells; Conc 10 μM): 67.39%
N#C/C=C/c1ccccn1 [I-5 HCl]	–	–	–	–	–	–	–	Visibility % (SH-SY5Y cells; Conc 0.078 μM): 67.72%; Visibility % (SH-SY5Y cells; Conc 0.156 μM): 67.82%; Visibility % (SH-SY5Y cells; Conc 0.313 μM): 69.35%; Visibility % (SH-SY5Y cells; Conc 0.625 μM): 74.72%
